Measured values taken from patent US12005034B2 (ALGOTHERAPEUTIX, priority 2017, dated 2024).

Key:
[1] = test system: Nav channels in sensory neurons; test: Whole-cell patch-clamp of sodium currents, all Nav channels tested; type: cell-based, mouse; conditions: 100 μM
Excerpt: Patch clamp recordings were made using borosilicate electrodes (Harvard Apparatus, Holliston, Massachusetts, USA) with a resistance of 2-3 MΩ when filled with an intracellular solution consisting of (in mM): 130 CsCl, 10 Hepes, 8 NaCl, 0.4 NaGTP, 4 MgATP, 1 MgCl2, 1 CaCl2 and 10 EGTA (adjusted to pH 7.3 with CsOH, ˜300 mOsm/L). […] Voltage-gated sodium ion currents were leak-subtracted using a P/6 protocol and voltage errors were minimized using 75-80% series resistance compensation. Cultured cells were perfused with the bath solution at flow rate of 5 mL/min. Recordings were made at room temperature (20-24° C.) using an Axopatch 200B amplifier (Axon Instruments, Boston, Massachusetts, USA), filtered at 1-2 kHz, and digitally sampled at 5-20 kHz. Sodium currents were recorded individually. […]. The Nav1.8 current was recorded in Nav1.9−/− DRG neurons, whereas the Nav1.9 current was recorded in Nav1.8−/− DRG neurons. Nav1.8−/− and Nav1.9−/− mice were generated from a C57B1/6J background. Fast activating/inactivating TTX-sensitive Na+ currents (Nav1.1 and Nav1.6) in putative non-nociceptors were recorded in wild-type DRG neurons that had large cell membrane capacitance (Cm>60 pF) and lacked any TTX-resistant Na+ current components. Nav1.7 recordings were made using the transfected HEK cells.

[2] = Ex vivo study of percutaneous amitriptyline absorption, Frantz cell; type: in vitro ADME, human
Nav1.8 = molecular target: T1, Nav1.8 (Mus musculus, UniProt Q6QIY3); test: Whole-cell patch-clamp of sodium currents in Nav1.9-/- DRG neurons; type: cell-based; conditions: holding potential −100 mV, cumulative 1 μM-1 mM; read-out: IC50, block of Nav1.8 current
T1 construct: The Nav1.8 current was recorded in Nav1.9−/− DRG neurons; endogenous in cells; host or cells: primary DRG neurons from Nav1.9-/- mice (C57Bl/6J background)

C, Aδ and Aβ fibers = test: Ex vivo single unit recordings, skin-saphenous nerve preparation, all fiber types; type: cell-based, mouse
Method: (§1) Adult male mice were anesthetized with isoflurane (4%) and sacrificed by severing of the carotid arteries. Skin-saphenous nerve preparations and single-fiber recordings were carried out. The saphenous nerve and the skin of the hind limb were carefully dissected and placed in a custom-designed organ chamber containing warm oxygenated synthetic interstitial fluid (SIF). […] The saphenous nerve was placed in an adjacent recording chamber filled with mineral oil, gently teased, and groups of nerve fibers were placed on a gold recording electrode in order to isolate single-unit activity. […] Cambridge Electronic Design Limited, UK). Spikes were discriminated off-line using the Spike2 software (Cambridge Electronic Design Limited, UK) and analyzed individually to avoid false positives. The mechanically evoked activity of single saphenous nerve fibers was first obtained in response to von Frey hair stimulations (Friedrich-Alexander University, Erlangen, Germany). Once a receptive field had been characterized, a patch of skin was isolated from the surrounding bath using a plastic minichamber (inner diameter: 0.8 cm) continuously superfused with buffer at 31° C. […] Conduction velocity was determined by electrically stimulating (Tungsten microelectrode: 10 mm ext/60 mm PI; FHC, USA) identified receptive fields with square wave pulses (0.1-0.5 ms, 7-15 V). […]

Aβ fibers = test: Ex vivo single unit recordings, skin-saphenous nerve preparation; type: cell-based, mouse
Method: (§2) Adult male mice were anesthetized with isoflurane (4%) and sacrificed by severing of the carotid arteries. Skin-saphenous nerve preparations and single-fiber recordings were carried out. The saphenous nerve and the skin of the hind limb were carefully dissected and placed in a custom-designed organ chamber containing warm oxygenated synthetic interstitial fluid (SIF). […] The saphenous nerve was placed in an adjacent recording chamber filled with mineral oil, gently teased, and groups of nerve fibers were placed on a gold recording electrode in order to isolate single-unit activity. […] Cambridge Electronic Design Limited, UK). Spikes were discriminated off-line using the Spike2 software (Cambridge Electronic Design Limited, UK) and analyzed individually to avoid false positives. The mechanically evoked activity of single saphenous nerve fibers was first obtained in response to von Frey hair stimulations (Friedrich-Alexander University, Erlangen, Germany). Once a receptive field had been characterized, a patch of skin was isolated from the surrounding bath using a plastic minichamber (inner diameter: 0.8 cm) continuously superfused with buffer at 31° C. The receptive field was then stimulated using von Frey mechanical probes mounted on the arm of a computer-controlled piezoelectric […]® controller; PI, Germany). Conduction velocity was determined by electrically stimulating (Tungsten microelectrode: 10 mm ext/60 mm PI; FHC, USA) identified receptive fields with square wave pulses (0.1-0.5 ms, 7-15 V). Axons were considered to be A-type when the conduction velocity was over 4 m/s. Fibers with a conduction velocity below 1 m/s were classified as C fibers.

C fibers = test: as above; type: cell-based, mouse
Method: as §2

TRPA1 = molecular target: T2, TRPA1 (Mus musculus, UniProt Q8BLA8); test: Calcium mobilization in DRG neurons with TRPA1 antagonist or agonist; type: cell-based
T2 construct: calcium ion mobilization was investigated in primary cultures of mouse DRG neurons; endogenous in cells; host or cells: primary mouse DRG neurons
Method: (§3) For calcium mobilization measurements, 10 DRG cultures (two mice per culture) were washed with Hanks Balanced Salt Solution (HBSS, Thermo Fisher Scientific, Massachusetts, USA), and incubated in HBSS containing 1 μg/ml papain (Sigma Aldrich, Missouri, USA) and L-cysteine (pH 7.4, Sigma Aldrich) for 10 minutes at 37° C. […] Neurons were then mechanically dissociated. […] DRG neurons were incubated with HBSS containing 20 mM Hepes, […] fluo-4 acetoxymethyl (AM) ester (Thermo Fisher Scientific, Waltham, MA USA) and 0.02% pluronic acid for 30 min at 37° C. followed by an additional incubation for 30 min at room temperature. The medium was then discarded and replaced by HBSS. […] The effects of TRP channel agonists and antagonists on amitriptyline-induced calcium ion mobilization were then assessed as follows: neurons were incubated with either an antagonist for TRPV1 (10 μM AMG 9810, Sigma Aldrich) or an antagonist for TRPA1 (HCO30031; […] Sigma Aldrich). Neurons were imaged using an inverted microscope (Zeiss) and a 10×0.5 NA objective. […] Baseline fluorescence was determined for 0 to 10 seconds, and then fluorescence was measured from the 10th to the 65th second after the neurons were incubated with the drugs or controls. […] Variations in fluorescence intensity measured in each neuron were identified using Image J2 software.

hNav1.7 = molecular target: T3, hNav1.7 (Homo sapiens, UniProt Q15858); test: Whole-cell patch-clamp of sodium currents in hNav1.7-transfected HEK293T cells; type: cell-based; conditions: holding potential −80 mV, cumulative 1 μM-1 mM; read-out: IC50, block of Nav1.7 current
T3 construct: expressed in transfected cells; host or cells: HEK293T
Method: Human embryonic kidney 293T (HEK293T) cells were grown in DMEM containing 4.5 mg/ml glucose, 10% FBS, 50 units/ml penicillin and 50 μg/ml streptomycin. Cells were plated onto 12-mm round glass poly-D-lysine-coated coverslips placed in 24-well plates and transfected using lipofectamine 2000 (Invitrogen) according to the manufacturer's instructions. hNav1.7 and GFP plasmids were co-transfected at a concentration of 600 and 100 ng/ml, respectively. Experiments were conducted on cells 24-48 hours post-transfection.
(§4) Patch clamp recordings were made using borosilicate electrodes (Harvard Apparatus, Holliston, Massachusetts, USA) with a resistance of 2-3 MΩ when filled with an intracellular solution consisting of (in mM): 130 CsCl, 10 Hepes, 8 NaCl, 0.4 NaGTP, 4 MgATP, 1 MgCl2, 1 CaCl2 and 10 EGTA (adjusted to pH 7.3 with CsOH, ˜300 mOsm/L). […] Sodium currents were recorded individually. […] The Nav1.8 current was recorded in Nav1.9−/− DRG neurons, whereas the Nav1.9 current was recorded in Nav1.8−/− DRG neurons. […] Fast activating/inactivating TTX-sensitive Na+ currents (Nav1.1 and Nav1.6) in putative non-nociceptors were recorded in wild-type DRG neurons that had large cell membrane capacitance (Cm>60 pF) and lacked any TTX-resistant Na+ current components. […]

[3] = in vivo; cited from earlier work
TRPV1 = molecular target: T4, TRPV1 (Mus musculus, UniProt Q704Y3); test: Calcium mobilization in DRG neurons with TRPV1 antagonist or agonist; type: cell-based
T4 construct: calcium ion mobilization was investigated in primary cultures of mouse DRG neurons; endogenous in cells; host or cells: primary mouse DRG neurons
Method: as §3

neuropathic pain = conditions: topical, maximum dose used 5%; cited from earlier work
mouse DRG neurons = test: Calcium mobilization in DRG neurons, fluo-4 calcium imaging; type: cell-based
Method: For calcium mobilization measurements, 10 DRG cultures (two mice per culture) were washed with Hanks Balanced Salt Solution (HBSS, Thermo Fisher Scientific, Massachusetts, USA), and incubated in HBSS containing 1 μg/ml papain (Sigma Aldrich, Missouri, USA) and L-cysteine (pH 7.4, Sigma Aldrich) for 10 minutes at 37° C. […] Neurons were then mechanically dissociated. […] DRG neurons were incubated with HBSS containing 20 mM Hepes, […] fluo-4 acetoxymethyl (AM) ester (Thermo Fisher Scientific, Waltham, MA USA) and 0.02% pluronic acid for 30 min at 37° C. followed by an additional incubation for 30 min at room temperature. The medium was then discarded and replaced by HBSS. […] The effects of TRP channel agonists and antagonists on amitriptyline-induced calcium ion mobilization were then assessed as follows: neurons were incubated with either an antagonist for TRPV1 (10 μM AMG 9810, Sigma Aldrich) or an antagonist for TRPA1 (HCO30031; […] Sigma Aldrich). Neurons were imaged using an inverted microscope (Zeiss) and a 10×0.5 NA objective. Images were acquired using a CCD camera (Zeiss) and Zen software (Zeiss). Acquisition parameters were kept constant during each experiment. Kinetic analysis was performed using 85 recordings (one per second). Baseline fluorescence was determined for 0 to 10 seconds, and then fluorescence was measured from the 10th to the 65th second after the neurons were incubated with the drugs or controls. At 65 seconds, 50 mM KCl was added to the cells in order to allow discrimination between neurons and glial cells. Variations in fluorescence intensity measured in each neuron were identified using Image J2 software.

[4] = test system: TTX-S Nav channels (Nav1.1 and Nav1.6); test: Whole-cell patch-clamp of TTX-sensitive sodium currents in wild-type DRG neurons; type: cell-based, mouse; conditions: read-out: IC50, block of TTX-S Nav currents; holding potential −80 mV, touch mechanoreceptors
Method: (§5) Cultures of DRG were prepared from male mice anesthetized with isoflurane (4%, Piramal Critical Care) and sacrificed by severing of the carotid arteries. Cultures of dissociated DRG neurons were established from thoracolumbar DRG.
(§6) DRG for whole-cell patch-clamp recordings were incubated in Hanks balance salt solution (Invitrogen, France) containing 2 mg/ml of collagenase IA (Sigma, France) for approximately 45 minutes at 37° C. DRG were washed at least 10 times and then triturated with a fired polished glass Pasteur pipette. […]
as §4

Aδ fibers = test: Ex vivo single unit recordings, skin-saphenous nerve preparation; type: cell-based; conditions: Mus musculus, 10 min
Method: as §1

Nav1.9 = molecular target: T5, Nav1.9 (Mus musculus, UniProt Q9R053); test: Whole-cell patch-clamp of sodium currents in Nav1.8-/- DRG neurons; type: cell-based; conditions: holding potential −100 mV, cumulative 1 μM-1 mM; read-out: IC50, block of Nav1.9 current
T5 construct: the Nav1.9 current was recorded in Nav1.8−/− DRG neurons; endogenous in cells; host or cells: primary DRG neurons from Nav1.8-/- mice (C57Bl/6J background)
Method: as §5, §6, §4

[5] = Mus musculus, 10 min, skin superfusion 10 min, 10-100 μM, read-out: IC50, inhibition of mechanically induced firing
[6] = Mus musculus, 10 min, 100 μM, 10 min application to the skin preparation, read-out: Mean inhibition of evoked firing

T2 sequence (Q8BLA8 whole entry): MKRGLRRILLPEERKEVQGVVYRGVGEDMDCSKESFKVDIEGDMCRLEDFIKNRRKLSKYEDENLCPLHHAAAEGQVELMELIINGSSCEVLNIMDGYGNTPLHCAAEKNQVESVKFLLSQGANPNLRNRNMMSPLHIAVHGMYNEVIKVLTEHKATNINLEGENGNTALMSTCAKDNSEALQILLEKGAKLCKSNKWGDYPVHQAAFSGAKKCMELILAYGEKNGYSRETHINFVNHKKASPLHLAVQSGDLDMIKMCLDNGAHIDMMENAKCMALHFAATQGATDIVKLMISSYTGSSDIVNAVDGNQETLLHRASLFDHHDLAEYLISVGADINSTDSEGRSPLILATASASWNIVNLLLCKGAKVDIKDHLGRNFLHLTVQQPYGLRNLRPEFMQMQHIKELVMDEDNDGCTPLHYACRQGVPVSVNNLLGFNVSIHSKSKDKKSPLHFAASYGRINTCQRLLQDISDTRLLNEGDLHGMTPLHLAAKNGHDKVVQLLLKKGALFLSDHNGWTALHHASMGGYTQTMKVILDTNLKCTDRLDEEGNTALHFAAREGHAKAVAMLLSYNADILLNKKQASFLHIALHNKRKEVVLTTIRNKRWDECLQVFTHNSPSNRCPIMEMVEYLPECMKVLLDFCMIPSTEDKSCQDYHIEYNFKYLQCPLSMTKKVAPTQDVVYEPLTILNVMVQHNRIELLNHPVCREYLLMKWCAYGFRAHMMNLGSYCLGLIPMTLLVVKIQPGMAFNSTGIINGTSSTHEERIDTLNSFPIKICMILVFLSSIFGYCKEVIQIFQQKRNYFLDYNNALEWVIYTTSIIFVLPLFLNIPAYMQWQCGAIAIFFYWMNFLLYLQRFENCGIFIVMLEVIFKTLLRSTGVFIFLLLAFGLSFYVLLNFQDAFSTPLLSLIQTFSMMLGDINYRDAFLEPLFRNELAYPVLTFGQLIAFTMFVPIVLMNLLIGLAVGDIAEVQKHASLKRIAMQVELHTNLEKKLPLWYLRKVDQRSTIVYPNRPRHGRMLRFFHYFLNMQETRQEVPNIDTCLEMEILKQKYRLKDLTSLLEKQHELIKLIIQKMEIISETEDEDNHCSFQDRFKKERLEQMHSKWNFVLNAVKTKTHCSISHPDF
T4 sequence (Q704Y3 whole entry): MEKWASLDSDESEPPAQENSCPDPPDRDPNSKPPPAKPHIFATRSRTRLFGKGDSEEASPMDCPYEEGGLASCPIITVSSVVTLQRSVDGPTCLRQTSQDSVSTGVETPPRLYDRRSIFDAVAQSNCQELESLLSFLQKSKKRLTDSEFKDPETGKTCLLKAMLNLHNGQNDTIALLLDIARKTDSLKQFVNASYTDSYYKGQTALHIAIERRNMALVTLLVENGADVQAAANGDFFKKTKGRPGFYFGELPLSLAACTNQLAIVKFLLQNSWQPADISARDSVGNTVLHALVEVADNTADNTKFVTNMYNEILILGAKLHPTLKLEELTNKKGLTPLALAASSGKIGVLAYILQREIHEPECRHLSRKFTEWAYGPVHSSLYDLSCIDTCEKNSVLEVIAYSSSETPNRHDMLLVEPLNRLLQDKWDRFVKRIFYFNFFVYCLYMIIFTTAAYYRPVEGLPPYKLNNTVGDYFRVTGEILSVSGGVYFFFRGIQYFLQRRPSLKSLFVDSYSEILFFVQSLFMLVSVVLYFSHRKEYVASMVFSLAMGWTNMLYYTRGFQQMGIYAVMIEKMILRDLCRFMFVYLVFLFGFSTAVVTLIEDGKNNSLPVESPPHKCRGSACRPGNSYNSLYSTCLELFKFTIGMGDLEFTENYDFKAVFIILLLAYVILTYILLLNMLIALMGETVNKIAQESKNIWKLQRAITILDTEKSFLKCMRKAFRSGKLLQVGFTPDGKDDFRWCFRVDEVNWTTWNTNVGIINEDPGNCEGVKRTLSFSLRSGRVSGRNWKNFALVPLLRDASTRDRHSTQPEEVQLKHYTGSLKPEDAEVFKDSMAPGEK
T1 sequence (Q6QIY3 whole entry): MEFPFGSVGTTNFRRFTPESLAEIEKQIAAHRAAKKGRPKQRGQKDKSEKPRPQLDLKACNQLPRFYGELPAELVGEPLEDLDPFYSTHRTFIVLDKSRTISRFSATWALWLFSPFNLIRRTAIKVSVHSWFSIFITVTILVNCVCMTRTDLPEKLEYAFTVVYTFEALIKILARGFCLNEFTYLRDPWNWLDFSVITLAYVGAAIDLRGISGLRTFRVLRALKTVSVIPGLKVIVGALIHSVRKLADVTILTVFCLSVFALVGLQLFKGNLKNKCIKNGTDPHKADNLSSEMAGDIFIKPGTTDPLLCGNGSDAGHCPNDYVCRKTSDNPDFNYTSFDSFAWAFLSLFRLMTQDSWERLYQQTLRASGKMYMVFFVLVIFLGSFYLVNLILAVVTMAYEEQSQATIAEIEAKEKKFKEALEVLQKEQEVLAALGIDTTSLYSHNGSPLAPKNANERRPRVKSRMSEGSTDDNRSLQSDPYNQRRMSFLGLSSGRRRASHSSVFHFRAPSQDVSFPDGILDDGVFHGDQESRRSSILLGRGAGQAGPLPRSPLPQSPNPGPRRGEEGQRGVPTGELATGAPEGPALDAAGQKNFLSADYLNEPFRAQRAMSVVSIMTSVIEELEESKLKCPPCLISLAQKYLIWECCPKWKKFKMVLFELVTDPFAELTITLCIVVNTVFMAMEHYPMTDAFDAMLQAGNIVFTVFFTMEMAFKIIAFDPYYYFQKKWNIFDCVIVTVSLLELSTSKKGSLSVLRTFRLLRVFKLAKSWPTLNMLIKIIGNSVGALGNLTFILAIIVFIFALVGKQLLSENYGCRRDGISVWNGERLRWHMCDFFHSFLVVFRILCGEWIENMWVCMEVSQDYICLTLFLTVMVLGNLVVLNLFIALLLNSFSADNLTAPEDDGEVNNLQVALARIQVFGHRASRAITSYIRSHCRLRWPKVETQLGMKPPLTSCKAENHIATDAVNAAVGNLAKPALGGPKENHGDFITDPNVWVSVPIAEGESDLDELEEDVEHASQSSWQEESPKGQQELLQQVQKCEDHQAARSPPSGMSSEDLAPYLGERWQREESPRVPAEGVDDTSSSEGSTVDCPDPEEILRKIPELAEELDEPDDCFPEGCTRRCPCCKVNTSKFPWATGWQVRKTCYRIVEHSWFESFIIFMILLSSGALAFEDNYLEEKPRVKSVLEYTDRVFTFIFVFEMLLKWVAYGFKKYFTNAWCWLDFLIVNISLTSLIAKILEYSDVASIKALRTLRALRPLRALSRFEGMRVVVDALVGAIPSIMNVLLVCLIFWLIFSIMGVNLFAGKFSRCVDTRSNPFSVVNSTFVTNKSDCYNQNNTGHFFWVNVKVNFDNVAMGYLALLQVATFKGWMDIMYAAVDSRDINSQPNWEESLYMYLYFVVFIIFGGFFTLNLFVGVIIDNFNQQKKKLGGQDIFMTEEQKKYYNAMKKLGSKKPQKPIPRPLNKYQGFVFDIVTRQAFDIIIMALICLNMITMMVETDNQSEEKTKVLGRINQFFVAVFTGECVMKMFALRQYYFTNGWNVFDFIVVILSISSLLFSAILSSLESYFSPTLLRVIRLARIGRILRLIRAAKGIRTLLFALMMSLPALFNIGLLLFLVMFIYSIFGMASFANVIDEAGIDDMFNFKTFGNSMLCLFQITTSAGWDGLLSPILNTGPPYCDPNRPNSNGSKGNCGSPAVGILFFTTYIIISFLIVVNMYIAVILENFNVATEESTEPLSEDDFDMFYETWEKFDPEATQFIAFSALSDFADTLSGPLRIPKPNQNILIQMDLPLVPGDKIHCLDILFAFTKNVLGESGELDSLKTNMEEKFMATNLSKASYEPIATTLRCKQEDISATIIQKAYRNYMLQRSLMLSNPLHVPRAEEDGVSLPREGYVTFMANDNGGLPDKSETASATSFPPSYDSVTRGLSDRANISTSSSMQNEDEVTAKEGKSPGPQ

CN(C)CCC=C1c2ccccc2CCc2ccccc21 [amitriptyline, Amitriptyline]
time to reversal of inhibition [1]: ≤ 20 ± 2 min | amitriptyline bioavailability ([2]; 10 mg of 10% cream per cell, 16 hours): 22.5 µg | amitriptyline present in the epidermis ([2]; compared with dermis, 10% cream, 16 hours): 26% | amitriptyline present in the dermis ([2]; compared with epidermis, 10% cream, 16 hours): Approximately 74% | passage into the bloodstream ([2]; relative to the amount of amitriptyline present in the composition): less than 0.1% | IC50 (Nav1.8): 4.25 ± 0.4 µM | time of washout to reversal of inhibition (C, Aδ and Aβ fibers): 30 to 35 min | discharge of a low-threshold Aβ mechanoreceptor, representative recording (Aβ fibers; 1 mN stimulus, 100 μM, 5 and 10 min superfusion): inhibition was not complete | reversal of inhibition after washout, Aβ mechanoreceptor (Aβ fibers; 30 min washout after 100 μM): partially reversed | IC50 (Aβ fibers; [5]): ~26 µM | inhibition at 100 µM (Aβ fibers; [6]): 82.5% | firing in a C-type mechanonociceptor fiber, representative recording (C fibers; 11.4 mN stimulation, 100 μM, 10 min superfusion): Full inhibition of firing | IC50 (C fibers; [5]): ~15 µM | inhibition at 100 µM (C fibers; [6]): 95.6% | potentiation of DRG neuron activation induced by TRPA1 agonist (TRPA1; 0.01 mM, 5-min incubation, 50 μM AITC): did not potentiate | IC50 (hNav1.7): 4.25 ± 0.4 µM | plasma half-life [3]: 9 to 36 h | potentiation of DRG neuron activation induced by TRPV1 agonist (TRPV1; 0.01 mM, 5-min incubation, 62 nM capsaicin): did not potentiate | efficacy in the treatment of neuropathic pain (neuropathic pain): not efficacious | time to increase in intracellular calcium ions (mouse DRG neurons; 0.1 mM): ≤ 10 s | time to plateau of intracellular calcium ion amplitude curve (mouse DRG neurons; 0.1 mM): around 20 seconds | IC50 (mouse DRG neurons; Mus musculus, DRG neuron, 0.01 mM-1 mM, read-out: IC50, percentage of DRG neurons displaying intracellular calcium mobilization): 50 µM | IC50 [4]: 62 ± 0.5 µM | IC50 (Aδ fibers; skin superfusion 10 min, 10-100 μM, read-out: IC50, inhibition of mechanically induced firing): ~16 µM | inhibition at 100 µM (Aδ fibers; 100 μM, 10 min application to the skin preparation, read-out: Mean inhibition of evoked firing): 87.5% | IC50 (Nav1.9): 15.6 ± 0.5 µM

CC(C)(C)c1ccc(/C=C/C(=O)Nc2ccc3c(c2)OCCO3)cc1 [AMG9810]
effect of antagonist pretreatment on amitriptyline-induced calcium ion mobilization (TRPV1; 5-min pretreatment, 10 μM TRPV1 antagonist): had no effect

CC(C)c1ccc(NC(=O)Cn2cnc3c2c(=O)n(C)c(=O)n3C)cc1 [HC30301]
effect of antagonist pretreatment on amitriptyline-induced calcium ion mobilization (TRPA1; 5-min pretreatment, excess of TRPA1 antagonist): led to inhibition of amitriptyline-induced calcium ion mobilization
